Source: US20100212049A1, “Compositions and Methods of Use of Response Regulators” (Pioneer Hi-Bred International, Inc., priority 2005, published 2010)

Tests used:
Ckx1 transcripts [1] = experiment: Time-course of Ckx1 transcript induction by BA in maize leaf discs (Northern blot); assay type: cell-based, maize (inbred B73); conditions: 10 μM BA, after 6 hours, 25° C.
Method: (§1) Two experiments were performed: one was an initial experiment to determine the time course for BA induction of Ckx1 transcripts in leaf discs, while the second experiment used the time-course information to optimize tissue harvest for the actual Lynx study. For the time-course experiment, leaf discs (5 mm in diameter) were collected from fully expanded leaves of 8-week old maize plants (inbred B73) and were incubated in petri dishes containing water or water plus 10 μM BA for different time periods at 25° C. For the Lynx experiment ˜300 leaf-discs were punched from ear leaves collected from 5 different maize B73 plants at flowering. Half of the discs were floated in a large petri dish on a solution containing 10 μM BA; the other half were floated on distilled water. Discs were incubated for 6 h at 25° C. in the light, blotted-dried, frozen in liquid nitrogen, and then submitted for Lynx analysis.
Time-course experiment: This perfunctory experiment was designed to learn the kinetics of Ckx1 transcript accumulation in response to BA. Ckx1 transcript levels were induced […] after 6 hours (FIG. 1).

Ckx1 transcripts [2] = experiment: Lynx expression experiment, leaf discs floated on BA vs water: Ckx1; assay type: cell-based, maize B73; conditions: 10 μM BA, 6 h
Method: (§2) A Lynx experiment was performed to identify genes in the cytokinin signaling and metabolism pathway, as well as the carbohydrate pathway, whose expression is modulated in response to elevated cytokinin levels. One goal of this experiment was to identify response regulators that could be involved in the cytokinin-signaling pathway and could potentially act as Ckx1 transcriptional regulators.
as §1, with “Half of the discs were floated in a large petri dish on a solution containing 10 μM BA; the other half were floated on distilled water. Discs were incubated for 6 h at 25° C. in the light, blotted-dried, frozen in liquid nitrogen, and then submitted for Lynx analysis.” left out
(§3) Nevertheless, differences in levels of expression of multiple genes were detected and these are presented as genes relevant to cytokinin response, isoprenoid (or terpenoid) biosynthesis, and cell division (Table 2).
A ˜30-fold increase in Ckx1 transcripts was measured after 6 h of BA application (Table 2). […]

[3] = tested on: Zm Response regulator 5 (ZmRR5); experiment: Lynx expression experiment, leaf discs floated on BA vs water: ZmRR5; assay type: cell-based, maize B73; conditions: 6 h
Method: as §2, §1, §3
(§4) A ˜30-fold increase in Ckx1 transcripts was measured after 6 h of BA application (Table 2). […] We also identified two new response regulators whose expression is induced by BA, ZmRRS and ZmRR6 (Table 2).

[4] = tested on: Zm response regulator 6 (ZmRR6); experiment: Lynx expression experiment, leaf discs floated on BA vs water: ZmRR6; assay type: cell-based, maize B73; conditions: 6 h
Method: as §2, §1, §3, §4

Ckx1 = conditions: maize leaf discs incubated with BA, compared to untreated controls; cited from earlier work

c1ccc(CNc2ncnc3nc[nH]c23)cc1 [BA, benzyladenine]
Ckx1 transcript levels induced (Ckx1 transcripts [1]): ~15 fold | increase in Ckx1 transcripts (Ckx1 transcripts [2]): ~30 fold | Up/down regulation ([3]; 10 μM BA vs water): up | Ratio BA/Ctrl ([3]; 10 μM BA vs water, ppm ratio): 8.50 | Cldba (treated sample) expression ([3]; 10 μM BA, Lynx): 395 ppm | Up/down regulation ([4]; 10 μM BA vs water): up | Ratio BA/Ctrl ([4]; 10 μM BA vs water, ppm ratio): 8.75 | Cldba (treated sample) expression ([4]; 10 μM BA, Lynx): 70 ppm | Ckx1 induced (Ckx1): ~60 fold
